{"source": "patent US12089593B2", "about": "“Compositions and methods for treating and preventing dust mite infestation” (EVOLVA SA, priority 2016, dated 2024)", "system": "Dust mite Dermataphagoides farinae", "assay": "Laboratory bioassay: dust mite susceptibility to nootkatone on treated filter paper envelopes", "assay_type": "in vivo", "excerpt": "This example describes a laboratory bioassay in which groups of dust mites were exposed to a solution of the product to determine dust mite susceptibility to nootkatone.\nOne milliliter of a 1% (wt/vol) nootkatone in ethanol formulation was applied directly to 9 cm discs of filter paper by pipette. The filter papers were allowed to dry completely and were cut to the appropriate size prior to the start of the test. Pure ethanol was used as a control.\nTreated and untreated (ethanol-treated only) filter papers were cut into 2.5 inch (6.35 cm) squares and folded into envelopes to serve as containers for the test. Five replicates of 35 dust mites were tested per treatment. After the mites were placed inside, the openings were sealed using clips so that the mites could not escape.\nDust mites were only observed after 72 hours post-introduction to the test containers, due to their small size, and the likelihood of loss of mites during handling. […] Results", "key": {"[1]": {"settings": "72 hours post introduction, filter paper treated with 1 mL of 1% (wt/vol) nootkatone in ethanol, dried, five replicates of 35 adult mixed-sex mites"}}}
{"smiles": "C=C(C)[C@@H]1CCC2=CC(=O)C[C@@H](C)[C@]2(C)C1", "note": "[Nootkatone, nootkatone]", "values": [{"measurement": "state of mites after exposure (175 total mites)", "setting": "72 hours of exposure to filter papers treated with 1% nootkatone in ethanol", "value": "all dead"}, {"measurement": "Means Affected", "setting": "[1]", "value": 100.0, "unit": "%"}, {"measurement": "Means Dead", "setting": "[1]", "value": 100.0, "unit": "%"}, {"measurement": "Means KD (knockdown)", "setting": "[1]", "value": 0.0, "unit": "%"}, {"measurement": "mortality rates of dust mites", "setting": "dust mites exposed to low concentrations of nootkatone", "value": 100, "unit": "%"}]}
